Data from patent publication US20190046478A1, “BIOLOGICAL MARKER FOR IDENTIFYING CANCER PATIENTS FOR TREATMENT WITH A BIGUANIDE” (THE ROYAL INSTITUTION FOR THE ADVANCEMENT OF …, priority 2017, published 2019).
Where two headings read alike, the source gives them in different places.

Experiments:
Eμ-Myc cells [1] = assay: GC-MS analysis of metabolite abundance and 13C-glutamine labelling; format: cell-based, mouse; conditions: for 13C-glutamine incorporation into glutamate and α-ketoglutarate, +17˜92 versus treated control cells: 100 μM phenformin or 10 μM Compound 1, FIG. 4B; for Aspartate abundance: +17˜92 and control cells, 2 hours, 100 μM phenformin or 10 μM Compound 1, FIG. 4A
Method: Cellular metabolites were extracted and analyzed by GC-MS. […] Cells were washed twice with saline, then lysed in ice-cold 80% methanol and sonicated. For GC-MS analysis, D-myristic acid (750 ng/sample) was added to metabolite extracts as an internal standard prior to drying samples under a N2 stream. […] The oven program for all metabolite analyses started at 60° C. held for 1 min, then increasing at a rate of 10° C./min until 320° C. Bake-out was at 320° C. for 10 min. […] Mass isotopomer distribution for TCA cycle intermediates was determined using a custom algorithm developed at McGill University. After correction for natural ^13C abundances, a comparison was made between non-labeled (^12C) and ^13C-labeled abundances for each metabolite. Metabolite abundance was expressed relative to the internal standard (D-myristic acid) and normalized to cell number.

[2] = system: Eμ-Myc lymphoma cells (control or +17˜92); assay: Tumor xenograft assay, survival of nude mice injected with lymphoma cells; format: in vivo, CD-1 nude mice; conditions: drinking water ad lib, 0.9 mg/mL phenformin or 0.8 mg/mL Compound 1, FIG. 6B
Method: Lymphoma cells were resuspended in HBSS at a concentration of 5×10^6 cells/mL, and 10^6 cells/200 μL were injected intravenously into CD-1 nude mice (Charles River).

Eμ-Myc cells [3] = assay: Mitochondrial ROS by MitoSox staining and flow cytometry; format: cell-based, mouse; conditions: 2 hours, 100 μM phenformin or 10 μM Compound 1, FIG. 5A
Source text: Statistics for all figures are as follows: *, p<0.05; **, p<0.01; ***, p<0.001.

Eμ-Myc cells [4] = assay: Seahorse XF96 respirometry (OCR and ECAR); format: cell-based, mouse; conditions: for Oxygen consumption of +17˜92 cells / Oxygen consumption of control cells: 100 μM phenformin or 10 μM Compound 1, after roughly four hours; for Oxygen consumption rate (OCR) / Extracellular acidification rate (ECAR): acute treatment, across a range of doses; for Oxygen consumption rate (OCR): FIG. 2A, 8A; for Extracellular acidification rate (ECAR): FIG. 2B, 8B; for IC50: after two hours treatment, read-out: Dose that produced a roughly 50% decrease in OCR from baseline
Method: 7.5×10^4 lymphoma cells were plated per well of an XF96 Seahorse plate in 140 μL of unbuffered DMEM containing 25 mM glucose and 2 mM glutamine, followed by centrifugation at 500×g for five minutes. Seahorse plates were pre-coated with poly-D-lysine (Sigma-Aldrich) to enhance cell adherence. XF assays consisted of sequential mix (3 min), pause (3 min), and measurement (5 min) cycles, allowing for determination of OCR and ECAR every […]. […] For media metabolite determination, cells were seeded at 1×10^5 cells/mL in 3.5 cm plates, and cultured for two days prior to harvesting medium. Culture medium was analyzed for extracellular metabolites (glucose and lactate) using a BioProfile Analyzer (NOVA Biomedical) and normalized to cell number.

Raji cells = assay: Cell viability assay in Raji lymphoma cells; format: cell-based, human; conditions: 48 hours, FIG. 3B
Method: (§1) Eμ-Myc cells were cultured on a layer of irradiated Ink4a-null MEF feeder cells in DMEM and IMDM medium (50:50 mix) supplemented with 10% fetal bovine serum (FBS), 20000 U/mL penicillin, 7 mM streptomycin, 2 mM glutamine, and β-mercaptoethanol. Raji cells were cultured in RPMI medium supplemented with 10% FBS, 20000 U/mL penicillin, 7 mM streptomycin, and 2 mM glutamine. Cells were grown at 37° C. in a humidified atmosphere supplemented with 5% (v/v) CO2.
(§2) Cells were seeded at a density of 1×10^5 cells/mL in 3.5 cm dishes, and cell counts determined via trypan blue exclusion using a TC20 Automated Cell Counter (Biorad). For viability measurements, cells were stained with Fixable Viability Dye eFluor 780 (eBioscience), and analyzed using a Gallios flow cytometer (Beckman Coulter, Fullerton, Calif.) and FlowJo software (Tree Star, Ashland, Oreg.).

Eμ-Myc cells [5] = assay: LC-MS analysis of GSH/GSSG, NADP+/NADPH and NAD+/NADH ratios; format: cell-based, mouse; conditions: 2 hours
Method: Aqueous supernatants were dried by vacuum centrifugation with sample temperature maintained at −4° C. (Labconco, Kansas City Mo., USA). Pellets were subsequently resuspended in 25 μL of H2O as the injection buffer. Chromatographic separation was performed on a Scherzo SM-C18 column 3 μm, 3.0×150 mm (Imtakt Corp, JAPAN). The chromatographic gradient started at 100% mobile phase A (0.2% formic acid in water) with a 2 min hold followed with a 6 min gradient to 80% B (0.2% formic acid in MeOH) at a flow rate of 0.4 mL/min. This was followed by a 5 min hold time at 100% mobile phase B and a subsequent re-equilibration time (6 min) before next injection. […] Analyte ionization was accomplished using ESI in positive ionization mode. […] MS data were acquired in full scan mode mass range: m/z 100-1000; scan time: 1.4 s; data collection: centroid and profile modes. […] For all LC/MS analyses, 1 μL of sample was injected. The column temperature was maintained at 10° C. Data were quantified by integrating the area under the curve of each compound using MassHunter Quant (Agilent Technologies, Santa Clara, Calif., USA). Each metabolite's accurate mass ion was extracted (EIC) using a 10 ppm window. Relative concentrations were determined from external calibration curves.

Eμ-Myc lymphoma cells = conditions: for Protection of viability of +17˜92 cells by pyruvate supplementation, lower doses / Protection of viability of +17˜92 cells by pyruvate supplementation, higher concentrations: 1 mM pyruvate, FIG. 5D, 10C; for Protection of viability of +17˜92 cells by pyruvate supplementation, lower doses: 10 μM Compound 1 or 30 μM phenformin; for Protection of viability of +17˜92 cells by pyruvate supplementation, higher concentrations: 100 μM Compound 1 or 300 μM phenformin
Method: as §1, §2

AMPK = assay: Immunoblot for pAMPK (T172) and total AMPK; format: cell-based, mouse; conditions: two hours, 100 μM phenformin or 10 μM Compound 1, FIG. 3C
Source text: Lymphoma cell lines were subjected to SDS-PAGE and immunoblotting using CHAPS and AMPK lysis buffers. Primary antibodies against β-actin, 4EBP (total, phospho-T36/47, and phospho-S65), rS6 (total and p S235/236), Raptor (total and pS792), and AMPKα (total and phospho-T172) were obtained from Cell Signaling Technology (Danvers, Mass.). Primary antibody against LKB1 (Ley 37D/G6) was obtained from Santa Cruz Biotechnology (Dallas, Tex., USA). For qPCR quantification of mature miRNAs, Qiazol was used isolate RNA, miRNEasy Mini kit was used to purify miRNAs and total mRNA, and cDNA synthesized using the miScript II RT kit (Qiagen). Quantitative PCR was performed using the SensiFAST SYBR Hi-ROX kit (Bioline) and an AriaMX Real-Time PCR system (Agilent Technologies). miScript primer assays (Qiagen) were used to detect mature miRNAs of the miR-17˜92 cluster, with miRNA expression normalized relative to U6 RNA levels.

[6] = 100 μM phenformin or 10 μM Compound 1, FIG. 5C

Compound | 13C-glutamine incorporation into glutamate and α-ketoglutarate, +17˜92 versus treated control cells (Eμ-Myc cells [1]) | Aspartate abundance (Eμ-Myc cells [1]) | Lifespan of mice bearing +17˜92 cells [2] | Mitochondrial ROS in +17˜92 cells (Eμ-Myc cells [3]) | Mitochondrial ROS levels in control cells (Eμ-Myc cells [3]) | Oxygen consumption of +17˜92 cells (Eμ-Myc cells [4]) | Oxygen consumption of control cells (Eμ-Myc cells [4]) | Oxygen consumption rate (OCR) (Eμ-Myc cells [4]) | Extracellular acidification rate (ECAR) (Eμ-Myc cells [4]) | Viability of Raji cells with or without miR-17˜92 overexpression over a range of doses (Raji cells) | Protection of viability of +17˜92 cells by pyruvate supplementation, lower doses (Eμ-Myc lymphoma cells; 48 hours) | Protection of viability of +17˜92 cells by pyruvate supplementation, higher concentrations (Eμ-Myc lymphoma cells; 48 hours) | AMPK phosphorylation in +17˜92 cells (AMPK) | also measured
N=C(NC(=N)N1CCCC1)Nc1cccc(OC(F)(F)F)c1 [Compound 1, N1-pyrrolidine-N5-(3-trifluoromethoxy)phenyl biguanide] | more significant reduction | reduced aspartate abundance | significantly prolonged the lifespan | significantly increased mitochondrial ROS | neither phenformin nor Compound 1 treatment were sufficient to increase | never eliminated | effectively non-respiring | decreased | commensurate increases | followed a similar trend, albeit at higher doses | some protective benefit | not apparent | largely unaffected | IC50 (Eμ-Myc cells [4]): 10 µM; Speed of OCR reduction versus equivalent doses of phenformin (Eμ-Myc cells [4]; higher doses, 5 min post-injection, FIG. 2C): more rapid reductions in OCR; Extent of OCR reduction versus equivalent doses of phenformin (Eμ-Myc cells [4]; lower doses, longer time periods (260 min), FIG. 2D): more profound reductions in OCR; GSH/GSSG ratio (Eμ-Myc cells [5]; 100 μM phenformin or 10 μM Compound 1, FIG. 5B): no significant changes; NADP+/NADPH ratio in +17˜92 cells (Eμ-Myc cells [5]; [6]): increase their NADP+/NADPH ratio; NADP+/NADPH ratio in control cells (Eμ-Myc cells [5]; [6]): not control cells; Viability of +17˜92 cells at doses not toxic in control cells (Eμ-Myc lymphoma cells; 48 hours, FIG. 3A): viability of +17˜92 cells was affected
[H]/N=C(/N)N/C(=N/[H])NCCc1ccccc1 [phenformin, reference compound] | not | reduced aspartate abundance | significantly prolonged the lifespan | approached significance | neither phenformin nor Compound 1 treatment were sufficient to increase | never eliminated | effectively non-respiring | decreased | commensurate increases | followed a similar trend, albeit at higher doses | some protective benefit | not apparent | reduced AMPK phosphorylation than control cells | IC50 (Eμ-Myc cells [4]; Mus musculus, 2 h): 100 µM; Viability of Δ/Δ (miR-17˜92 deleted) versus fl/fl cells (Eμ-Myc lymphoma cells; 48 hour treatment, FIG. 1A): more resistant; Sensitivity (viability) of +17˜92 versus control Eμ-Myc lymphoma cells (Eμ-Myc lymphoma cells; 48 hours, FIG. 1C): significantly more sensitive than controls
